Source: patent publication US9328374B2, “Selective culture medium and method for detecting carbapenem-resistant bacteria in a test sample” (Institut National de la Sante et de la Recherche Medicale …, priority 2011, dated 2016)
Values joined by “and” are separate entries in the source; they are usually repeats but may differ in a detail not shown here. Equal entries are not always repeated.

Legend:
K. pneumoniae = test: MIC of imipenem, ertapenem and meropenem; format: cell-based, Klebsiella pneumoniae
P. mirabilis = test: MIC of imipenem, ertapenem and meropenem; format: cell-based

SMILES: C[C@@H](O)[C@H]1C(=O)N2C(C(=O)O)=C(S[C@@H]3CN[C@H](C(=O)N(C)C)C3)[C@H](C)[C@H]12 [MEM, meropenem]
- MIC (K. pneumoniae; K. pneumoniae LEG (CTX-M-15 + TEM-1 + SHV-12)): 3 µg/mL
- MIC (K. pneumoniae; K. pneumoniae LEG, CTX-M-15 + TEM-1 + SHV-12, non-carbapenemase producer, porin deficiency): 3 µg/mL
- MIC (K. pneumoniae; K. pneumoniae LIB (OXA-48)): >32 µg/mL
- MIC (K. pneumoniae; K. pneumoniae LIB, OXA-48): 16 µg/mL
- MIC (K. pneumoniae; K. pneumoniae LIE, KPC-2 + TEM-2 + OXA-9): >32 µg/mL
- MIC (K. pneumoniae; K. pneumoniae LOU, OXA-48): 0.5 µg/mL
- MIC (K. pneumoniae; K. pneumoniae MAD (VIM-1 + CTX-M-3)): 1 µg/mL
- MIC (K. pneumoniae; K. pneumoniae MAD, VIM-1+ CTX-M-3): 1 µg/mL
- MIC (K. pneumoniae; K. pneumoniae MEK (CTX-M-15 + SHV-11)): 6 µg/mL
- MIC (K. pneumoniae; K. pneumoniae MEK, CTX-M-15 + SHV-11, non-carbapenemase producer, porin deficiency): 6 µg/mL
- MIC (K. pneumoniae; K. pneumoniae MUS (KPC-2 + TEM-1 + SHV-11 + SHV-12)): 1.5 µg/mL
- MIC (K. pneumoniae; K. pneumoniae MUS, KPC-2 + TEM-1 + SHV-11 + SHV-12): 1.5 µg/mL
- MIC (K. pneumoniae; K. pneumoniae OM2 (NDM-1 + TEM-1 + CTX-M-3 + SHV-11 + OXA-1)): 1.5 µg/mL
- MIC (K. pneumoniae; K. pneumoniae OM2, NDM-1 + TEM-1 + CTX-M-3 + SHV-11 + OXA-1): 1.5 µg/mL
- MIC (K. pneumoniae; K. pneumoniae OM4, NDM-1 + TEM-1 + CTX-M-15 + SHV-12 + OXA-9): 16 µg/mL
- MIC (K. pneumoniae; K. pneumoniae OM8, NDM-1 + TEM-1 + CTX-M-15 + SHV-11 + OXA-1): 4 µg/mL
- MIC (K. pneumoniae; K. pneumoniae OM11, OXA-48 + TEM-1 + CTX-M-14): 0.25 µg/mL
- MIC (K. pneumoniae; K. pneumoniae OM13, NDM-1 + TEM-1 + CTX-M-15 + SHV-28 + OXA-1 + OXA-9): 2 µg/mL
- MIC (K. pneumoniae; K. pneumoniae OM14, OXA-48 + TEM-1): 0.38 µg/mL
- MIC (K. pneumoniae; K. pneumoniae OM15, NDM-1 + CTX-M-15 + SHV-130 + OXA-1): 3 µg/mL
- MIC (K. pneumoniae; K. pneumoniae OM16, NDM-1 + CTX-M-15 + OXA-1 + OXA-181): 16 µg/mL
- MIC (K. pneumoniae; K. pneumoniae OM19, NDM-1 + CTX-M-15 + SHV-12 + OXA-1): 8 µg/mL
- MIC (K. pneumoniae; K. pneumoniae OMA419 (NDM-1 + OXA-1)): 2 µg/mL
- MIC (K. pneumoniae; K. pneumoniae OMA419, NDM-1 + OXA-1): 2 µg/mL
- MIC (K. pneumoniae; K. pneumoniae OMA601, NDM-1 + CTX-M-15 + OXA-1 + OXA-9): >32 µg/mL
- MIC (K. pneumoniae; K. pneumoniae OMA (OXA-181 + CTX-M-15 + OXA-1)): 0.5 µg/mL
- MIC (K. pneumoniae; K. pneumoniae OMA, OXA-181 + CTXM-15 + OXA-1): 0.5 µg/mL
- MIC (K. pneumoniae; K. pneumoniae RAM (OXA-48)): 1 µg/mL
- MIC (K. pneumoniae; K. pneumoniae RAM, OXA-48): 1 µg/mL
- MIC (K. pneumoniae; K. pneumoniae ROB (OXA-48 + CTX-M-15 + TEM-1)): 0.5 µg/mL
- MIC (K. pneumoniae; K. pneumoniae ROU (OXA-48 + CTX-M-15)): 0.25 µg/mL
- MIC (K. pneumoniae; K. pneumoniae ROU, OXA-48 + CTX-M-15): 0.25 µg/mL
- MIC (K. pneumoniae; K. pneumoniae SCO (OXA-48)): 0.25 µg/mL
- MIC (K. pneumoniae; K. pneumoniae SCO, OXA-48): 0.25 µg/mL
- MIC (K. pneumoniae; K. pneumoniae SHI (CTX-M-15 + TEM-1 + SHV-1)): 1 µg/mL
- MIC (K. pneumoniae; K. pneumoniae SHI, CTX-M-15 + TEM-1 + SHV-11, non-carbapenemase producer, porin deficiency): 1 µg/mL
- MIC (K. pneumoniae; K. pneumoniae SHM (CTX-M-15 + TEM-1 + SHV-11)): 1 µg/mL
- MIC (K. pneumoniae; K. pneumoniae SHM, CTX-M-15 + TEM-1 + SHV-11, non-carbapenemase producer, porin deficiency): 3 µg/mL
- MIC (K. pneumoniae; K. pneumoniae SIC (OXA-48 + CTX-M-15 + SHV-28)): 0.25 µg/mL
- MIC (K. pneumoniae; K. pneumoniae SIC, OXA-48 + CTX-M-15 + SHV-28): 0.25 µg/mL
- MIC (K. pneumoniae; K. pneumoniae SIM (CTX-M-15 + TEM-1 + SHV-1)): 6 µg/mL
- MIC (K. pneumoniae; K. pneumoniae SIM, CTX-M-15 + TEM-1 + SHV-1, non-carbapenemase producer, porin deficiency): 6 µg/mL
- MIC (K. pneumoniae; K. pneumoniae TAW, IMP-8 + SHV-12): 0.5 µg/mL
- MIC (K. pneumoniae; K. pneumoniae TIK, OXA-48): 0.38 µg/mL
- MIC (K. pneumoniae; K. pneumoniae TUR (IMP-1)): 8 µg/mL
- MIC (K. pneumoniae; K. pneumoniae TUR, IMP-1): 8 µg/mL
- MIC (K. pneumoniae; K. pneumoniae TWA, IMP-8): 0.5 µg/mL
- MIC (K. pneumoniae; K. pneumoniae UK (NDM-1 + CTX-M-15 + CMY-4 + OXA-1)): >32 µg/mL
- MIC (K. pneumoniae; K. pneumoniae UK, NDM-1 + CTX-M-15 + CMY-4 + OXA-1): >32 µg/mL
- MIC (K. pneumoniae; K. pneumoniae VER, OXA-48 + TEM-1 + CTX-M-15 + SHV-11): 0.38 µg/mL
- MIC (K. pneumoniae; K. pneumoniae VSG (OXA-48 + TEM-1 + CTX-M-15 + OXA-1)): 0.75 µg/mL
- MIC (K. pneumoniae; K. pneumoniae VSG, OXA-48 + TEM-1 + CTX-M-15 + OXA-1): 0.75 µg/mL
- MIC (K. pneumoniae; K. pneumoniae YC, KPC-2 + TEM-1 + SHV-11 + SHV-12 + OXA-9): 2 µg/mL
- MIC (K. pneumoniae; strain K. pneumoniae 7725, SHV-1, non-carbapenemase producer): 0.032 µg/mL
- MIC (K. pneumoniae; strain K. pneumoniae 648236, SHV-2a, non-carbapenemase producer): 0.38 µg/mL
- MIC (K. pneumoniae; strain K. pneumoniae ALE, CTX-M-15 + SHV-1, non-carbapenemase producer): 4 µg/mL
- MIC (K. pneumoniae; strain K. pneumoniae AMS, OXA-48 + TEM-1 + CTX-M-15 + OXA-1): 0.38 µg/mL
- MIC (K. pneumoniae; strain K. pneumoniae BAJ, OXA-48 + TEM-1 + CTX-M-15 + SHV-28): 0.38 µg/mL
- MIC (K. pneumoniae; strain K. pneumoniae BED, CTX-M-15 + TEM-1 + SHV-11, non-carbapenemase producer): 4 µg/mL
- MIC (K. pneumoniae; strain K. pneumoniae BEL, OXA-48): 1 µg/mL
- MIC (K. pneumoniae; strain K. pneumoniae BEN, OXA-48 + TEM-1 + CTX-M-15 + SHV-28): 0.25 µg/mL
- MIC (K. pneumoniae; strain K. pneumoniae BER, SHV-28 + TEM-1, non-carbapenemase producer): 1 µg/mL
- MIC (K. pneumoniae; strain K. pneumoniae ELK, OXA-48 + TEM-1 + CTX-M-15 + SHV-11): 0.38 µg/mL
- MIC (K. pneumoniae; strain K. pneumoniae HOL, OXA-181 + CTX-M-15): 1 µg/mL
- MIC (K. pneumoniae; strain K. pneumoniae MUS, KPC-2 + TEM-1 + SHV-11 + SHV-12): 1.5 µg/mL
- MIC (K. pneumoniae; strain K. pneumoniae OM2, NDM-1 + TEM-1 + CTX-M-3 + SHV-11 + OXA-1): 1.5 µg/mL
- MIC (K. pneumoniae; strain K. pneumoniae OMA419, NDM-1 + OXA-1): 2 µg/mL
- MIC (K. pneumoniae; strain K. pneumoniae OMA, OXA-181 + CTXM-15 + OXA-1): 0.5 µg/mL
- MIC (K. pneumoniae; strain K. pneumoniae ROU, OXA-48 + CTX-M-15): 0.25 µg/mL
- MIC (K. pneumoniae; strain K. pneumoniae SCO, OXA-48): 0.25 µg/mL
- MIC (K. pneumoniae; strain K. pneumoniae SIC, OXA-48 + CTX-M-15 + SHV-28): 0.25 µg/mL
- MIC (K. pneumoniae; strain K. pneumoniae VSG, OXA-48 + TEM-1 + CTX-M-15 + OXA-1): 0.75 µg/mL
- MIC (P. mirabilis; P. mirabilis 1031 (CTX-M-14 + TEM-1 + SHV-11)): 0.032 µg/mL
- MIC (P. mirabilis; P. mirabilis 1031, CTX-M-14 + TEM-1 + SHV-11, non-carbapenemase producer): 0.032 µg/mL
- MIC (P. mirabilis; P. mirabilis PMA (ACC-1)): 0.12 µg/mL and 0.064 µg/mL
- MIC (P. mirabilis; P. mirabilis PMA, ACC-1, non-carbapenemase producer): 0.064 µg/mL
